According to ChEMBL document CHEMBL1201862, “PubChem BioAssay data set” (2004):
“And” between values parts separate entries of the source, which are not always exact repeats. Equal entries are not always repeated.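 Assay format: 96-well plates, 48-hour exposure. GI50 marks 50% less growth.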 The source made the active and inactive calls. No stated cut-off is given here; in the data, active = GI50 up to about 1.1 µM and inactive = higher.

Key:
Experiment in all cases: NCI anticancer screen, dose series, 48 h
786-0 = tested on: 786-0
A549 = tested on: A549
ACHN = tested on: ACHN
BT-549 = tested on: BT-549
CAKI-1 = tested on: CAKI-1
DLD-1 = tested on: DLD-1
DMS-273 = tested on: DMS-273
DU-145 = tested on: DU-145
EKVX = tested on: EKVX
HOP-18 = tested on: HOP-18
HOP-62 = tested on: HOP-62
Hs-578T = tested on: Hs-578T
K562 = tested on: K562
KM-20L2 = tested on: KM-20L2
KM12 = tested on: KM12
M14 = tested on: M14
M19-MEL = tested on: M19-MEL
MDA-MB-231 = tested on: MDA-MB-231
MDA-MB-435 = tested on: MDA-MB-435
MDA-N = tested on: MDA-N
Malme-3M = tested on: Malme-3M
OVCAR-3 = tested on: OVCAR-3
OVCAR-8 = tested on: OVCAR-8
PC-3 = tested on: PC-3
RXF 393 = tested on: RXF 393
SF-268 = tested on: SF-268
SK-MEL-28 = tested on: SK-MEL-28
SK-MEL-5 = tested on: SK-MEL-5
SN12C = tested on: SN12C
SNB-19 = tested on: SNB-19
SNB-78 = tested on: SNB-78
SR = tested on: SR
SW-620 = tested on: SW-620
T47D = tested on: T47D
TK-10 = tested on: TK-10
XF498 = tested on: XF498
A498 = tested on: A498
CCRF-CEM = tested on: CCRF-CEM
COLO 205 = tested on: COLO 205
DMS-114 = tested on: DMS-114
HCC 2998 = tested on: HCC 2998
HCT-116 = tested on: HCT-116
HCT-15 = tested on: HCT-15
HL-60 = tested on: HL-60
HOP-92 = tested on: HOP-92
HT-29 = tested on: HT-29
IGROV-1 = tested on: IGROV-1
LOX IMVI = tested on: LOX IMVI
LXFL 529 = tested on: LXFL 529
MOLT-4 = tested on: MOLT-4
NCI-H226 = tested on: NCI-H226
NCI-H23 = tested on: NCI-H23
NCI-H460 = tested on: NCI-H460
NCI-H522 = tested on: NCI-H522
OVCAR-4 = tested on: OVCAR-4
OVCAR-5 = tested on: OVCAR-5
RPMI-8226 = tested on: RPMI-8226
SF-295 = tested on: SF-295
SF-539 = tested on: SF-539
SK-MEL-2 = tested on: SK-MEL-2
SK-OV-3 = tested on: SK-OV-3
SNB-75 = tested on: SNB-75
U-251 = tested on: U-251
UACC-257 = tested on: UACC-257
UACC-62 = tested on: UACC-62
UO-31 = tested on: UO-31

For `Cc1cc(O)c2c(=O)c3c(O)cc(O)c4c5c(O)cc(O)c6c(=O)c7c(O)cc(C)c8c1c2c(c34)c(c78)c65` [HYPERICIN], the GI50 (786-0) was > 100 µM (inactive), the GI50 (A549) was 52.6 µM (inactive) and the GI50 (ACHN) was > 100 µM (inactive). For the same compound, the GI50 (BT-549) was > 100 µM (inactive), the GI50 (CAKI-1) was > 100 µM (inactive) and the GI50 (DLD-1) was 21.3 µM (inactive). For the same compound, the GI50 (DMS-273) was 56.4 µM (inactive), the GI50 (DU-145) was > 100 µM (inactive) and the GI50 (EKVX) was > 100 µM (inactive) and 62.5 µM (inactive). For the same compound, the GI50 (HOP-18) was 63.1 µM (inactive), the GI50 (HOP-62) was 28.3 µM (inactive) and the GI50 (Hs-578T) was > 100 µM (inactive). The GI50 (K562) was 61.8 µM (inactive) and 33.3 µM (inactive), the GI50 (KM-20L2) was 21.7 µM (inactive) and the GI50 (KM12) was 54.5 µM (inactive). For the same compound, the GI50 (M14) was > 100 µM (inactive), the GI50 (M19-MEL) was 44.2 µM (inactive) and the GI50 (MDA-MB-231) was 10.1 µM (inactive). For the same compound, the GI50 (MDA-MB-435) was > 100 µM (inactive), the GI50 (MDA-N) was > 100 µM (inactive) and the GI50 (Malme-3M) was 61 µM (inactive). For the same compound, the GI50 (OVCAR-3) was > 100 µM (inactive) and 67 µM (inactive), the GI50 (OVCAR-8) was 74.3 µM (inactive) and the GI50 (PC-3) was > 100 µM (inactive). The GI50 (RXF 393) was 26.4 µM (inactive), the GI50 (SF-268) was 54 µM (inactive) and the GI50 (SK-MEL-28) was 53.1 µM (inactive). The GI50 (SK-MEL-5) was 59.8 µM (inactive), the GI50 (SN12C) was 60.8 µM (inactive) and the GI50 (SNB-19) was > 100 µM (inactive). The GI50 (SNB-78) was 42.5 µM (inactive), the GI50 (SR) was 99.8 µM (inactive) and the GI50 (SW-620) was 51.9 µM (inactive). For the same compound, the GI50 (T47D) was > 100 µM (inactive), the GI50 (TK-10) was > 100 µM (inactive) and the GI50 (XF498) was 71.1 µM (inactive).

`CC1=NOC(=O)/C1=C/c1cccc2ccccc12` was tested, and the GI50 (786-0) was > 100 µM (inactive), the GI50 (A498) was > 100 µM (inactive) and the GI50 (A549) was > 100 µM (inactive). For the same compound, the GI50 (ACHN) was > 100 µM (inactive), the GI50 (CAKI-1) was > 100 µM (inactive) and the GI50 (CCRF-CEM) was > 100 µM (inactive). For the same compound, the GI50 (COLO 205) was > 100 µM (inactive), the GI50 (DLD-1) was > 100 µM (inactive) and the GI50 (DMS-114) was > 100 µM (inactive). For the same compound, the GI50 (DMS-273) was > 100 µM (inactive), the GI50 (EKVX) was > 100 µM (inactive) and the GI50 (HCC 2998) was > 100 µM (inactive). The GI50 (HCT-116) was > 100 µM (inactive), the GI50 (HCT-15) was greater than 100 µM and the GI50 (HL-60) was > 100 µM (inactive). For the same compound, the GI50 (HOP-18) was > 100 µM (inactive), the GI50 (HOP-62) was > 100 µM (inactive) and the GI50 (HOP-92) was > 100 µM (inactive). For the same compound, the GI50 (HT-29) was > 100 µM (inactive), the GI50 (IGROV-1) was > 100 µM (inactive) and the GI50 (K562) was > 100 µM (inactive). The GI50 (KM-20L2) was > 100 µM (inactive), the GI50 (KM12) was > 100 µM (inactive) and the GI50 (LOX IMVI) was > 100 µM (inactive). The GI50 (LXFL 529) was > 100 µM (inactive), the GI50 (M14) was > 100 µM (inactive) and the GI50 (M19-MEL) was > 100 µM (inactive). The GI50 (MOLT-4) was > 100 µM (inactive), the GI50 (Malme-3M) was > 100 µM (inactive) and the GI50 (NCI-H226) was > 100 µM (inactive). For the same compound, the GI50 (NCI-H23) was > 100 µM (inactive), the GI50 (NCI-H460) was > 100 µM (inactive) and the GI50 (NCI-H522) was > 100 µM (inactive). For the same compound, the GI50 (OVCAR-3) was > 100 µM (inactive), the GI50 (OVCAR-4) was > 100 µM (inactive) and the GI50 (OVCAR-5) was > 100 µM (inactive). The GI50 (OVCAR-8) was > 100 µM (inactive), the GI50 (RPMI-8226) was > 100 µM (inactive) and the GI50 (RXF 393) was > 100 µM (inactive). The GI50 (SF-268) was > 100 µM (inactive), the GI50 (SF-295) was > 100 µM (inactive) and the GI50 (SF-539) was > 100 µM (inactive). The GI50 (SK-MEL-28) was > 100 µM (inactive), the GI50 (SK-MEL-2) was > 100 µM (inactive) and the GI50 (SK-MEL-5) was > 100 µM (inactive). The GI50 (SK-OV-3) was > 100 µM (inactive), the GI50 (SN12C) was > 100 µM (inactive) and the GI50 (SNB-19) was > 100 µM (inactive). The GI50 (SNB-75) was > 100 µM (inactive), the GI50 (SNB-78) was > 100 µM (inactive) and the GI50 (SR) was > 100 µM (inactive). For the same compound, the GI50 (SW-620) was 54 µM (inactive), the GI50 (TK-10) was > 100 µM (inactive) and the GI50 (U-251) was > 100 µM (inactive). For the same compound, the GI50 (UACC-257) was > 100 µM (inactive), the GI50 (UACC-62) was > 100 µM (inactive) and the GI50 (UO-31) was > 100 µM (inactive).

With `COC(=O)/C(C#N)=C1\NC(=O)c2ccccc21` the GI50 (786-0) was > 100 µM (inactive), the GI50 (A498) was > 100 µM (inactive) and the GI50 (A549) was > 100 µM (inactive). For the same compound, the GI50 (ACHN) was > 100 µM (inactive), the GI50 (CCRF-CEM) was > 100 µM (inactive) and the GI50 (COLO 205) was > 100 µM (inactive). For the same compound, the GI50 (DLD-1) was > 100 µM (inactive), the GI50 (DMS-114) was > 100 µM (inactive) and the GI50 (DMS-273) was > 100 µM (inactive). For the same compound, the GI50 (EKVX) was > 100 µM (inactive), the GI50 (HCC 2998) was > 100 µM (inactive) and the GI50 (HCT-116) was > 100 µM (inactive). For the same compound, the GI50 (HCT-15) was greater than 100 µM, the GI50 (HL-60) was > 100 µM (inactive) and the GI50 (HOP-18) was > 100 µM (inactive). For the same compound, the GI50 (HOP-62) was > 100 µM (inactive), the GI50 (HOP-92) was > 100 µM (inactive) and the GI50 (HT-29) was > 100 µM (inactive). For the same compound, the GI50 (IGROV-1) was > 100 µM (inactive), the GI50 (K562) was > 100 µM (inactive) and the GI50 (KM-20L2) was > 100 µM (inactive). The GI50 (KM12) was > 100 µM (inactive), the GI50 (LOX IMVI) was > 100 µM (inactive) and the GI50 (LXFL 529) was > 100 µM (inactive). The GI50 (M14) was > 100 µM (inactive), the GI50 (M19-MEL) was > 100 µM (inactive) and the GI50 (MOLT-4) was > 100 µM (inactive). For the same compound, the GI50 (Malme-3M) was > 100 µM (inactive), the GI50 (NCI-H226) was > 100 µM (inactive) and the GI50 (NCI-H23) was > 100 µM (inactive). For the same compound, the GI50 (NCI-H460) was > 100 µM (inactive), the GI50 (NCI-H522) was > 100 µM (inactive) and the GI50 (OVCAR-3) was > 100 µM (inactive). For the same compound, the GI50 (OVCAR-4) was > 100 µM (inactive), the GI50 (OVCAR-5) was > 100 µM (inactive) and the GI50 (OVCAR-8) was > 100 µM (inactive). For the same compound, the GI50 (RPMI-8226) was > 100 µM (inactive), the GI50 (RXF 393) was > 100 µM (inactive) and the GI50 (SF-268) was > 100 µM (inactive). For the same compound, the GI50 (SF-295) was > 100 µM (inactive), the GI50 (SF-539) was > 100 µM (inactive) and the GI50 (SK-MEL-28) was > 100 µM (inactive). For the same compound, the GI50 (SK-MEL-5) was > 100 µM (inactive), the GI50 (SK-OV-3) was > 100 µM (inactive) and the GI50 (SN12C) was > 100 µM (inactive). For the same compound, the GI50 (SNB-19) was > 100 µM (inactive), the GI50 (SNB-75) was 2.4 µM (inactive) and the GI50 (SNB-78) was > 100 µM (inactive). The GI50 (SR) was > 100 µM (inactive), the GI50 (SW-620) was > 100 µM (inactive) and the GI50 (TK-10) was > 100 µM (inactive). For the same compound, the GI50 (U-251) was > 100 µM (inactive), the GI50 (UACC-257) was > 100 µM (inactive) and the GI50 (UACC-62) was > 100 µM (inactive). For the same compound, the GI50 (UO-31) was > 100 µM (inactive).
